{
  "source": "patent US6440972B1",
  "about": "“Heterocyclic compounds useful as oxido-squalene cyclase inhibitors” (Zeneca Limited, priority 1997, dated 2002)",
  "key": {"[1]": {"molecular_target": "T1, microsomal oxido-squalene cyclase (Rattus norvegicus, UniProt P48450)", "T1 construct": "Microsomes are prepared from rat liver according to methods known in the art; from tissue; host or cells: rat liver microsomes", "T1 sequence (P48450 1-733)": "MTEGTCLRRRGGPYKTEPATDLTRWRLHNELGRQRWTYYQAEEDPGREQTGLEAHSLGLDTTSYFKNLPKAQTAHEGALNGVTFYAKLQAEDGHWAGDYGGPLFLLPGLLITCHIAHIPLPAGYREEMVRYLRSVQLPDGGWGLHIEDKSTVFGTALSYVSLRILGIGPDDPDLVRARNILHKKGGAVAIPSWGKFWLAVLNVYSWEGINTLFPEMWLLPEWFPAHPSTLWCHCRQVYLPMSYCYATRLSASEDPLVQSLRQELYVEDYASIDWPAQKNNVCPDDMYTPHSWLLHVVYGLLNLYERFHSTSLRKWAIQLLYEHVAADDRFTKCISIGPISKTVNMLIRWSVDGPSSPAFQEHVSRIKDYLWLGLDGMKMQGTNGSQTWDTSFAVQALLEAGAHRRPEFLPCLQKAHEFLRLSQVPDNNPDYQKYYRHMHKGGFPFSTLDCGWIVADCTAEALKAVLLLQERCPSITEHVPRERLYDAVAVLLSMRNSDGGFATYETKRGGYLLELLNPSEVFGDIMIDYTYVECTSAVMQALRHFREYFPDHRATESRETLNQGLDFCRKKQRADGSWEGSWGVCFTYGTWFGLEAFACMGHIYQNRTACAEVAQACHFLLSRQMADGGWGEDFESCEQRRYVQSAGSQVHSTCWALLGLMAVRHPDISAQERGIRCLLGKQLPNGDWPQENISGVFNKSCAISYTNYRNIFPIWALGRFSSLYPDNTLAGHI", "assay": "In vitro test to measure inhibition of oxido-squalene cyclase (rat liver microsomes)", "type": "biochemical", "conditions": "concentration of 0.01 μM", "procedure": "(a) In vitro Test to Measure Inhibition of Oxido-squalene Cyclase\nThis test measures the inhibition of microsomal oxido-squalene cyclase in vitro by compounds at set concentrations in the incubation medium.\nMicrosomes are prepared from rat liver according to methods known in the art, for example, the method described in published European Patent Application No 324,421 and stored in liquid nitrogen prior to assay. Assay vials are kept at 37° C. throughout the incubation. The microsomes typically contain 15-20 mg of protein per ml of microsomes. For the assay, 1 ml of microsomes are diluted by the addition of 722 μl of 50 mM phosphate buffer pH 7.4.\nPhosphate buffered Tween® 80 (polyoxyethylene sorbitan […]) is prepared by adding 0.1 g Tween® 80 to 100 ml of 50 mM phosphate buffer.\nA stock solution of oxido-squalene is made up as a solution in ethanol (0.65 mg.ml.^−1). 18 μl of radio-labelled oxido-squalene (1 μCi.ml^−1) is evaporated to dryness under a stream of nitrogen and redissolved in 1 ml of ethanol and 1 ml of the stock solution of oxido-squalene is added.\nThe test compound is dissolved in dimethyl sulphoxide to give a 10^−1M stock solution. […]\nThe samples are then placed in a water bath at 80° C. for 2 hours to saponify. […] Reaction rate is measured as the conversion of oxido-squalene to lanosterol, and the effects of test compounds are expressed as an inhibition of this process."}, "cholesterol biosynthesis": {"test_system": "cholesterol biosynthesis", "assay": "In vivo test to measure inhibition of oxido-squalene cyclase / cholesterol biosynthesis in the rat", "conditions": "dosed at 2 mg.kg^−1, oral, rat liver", "procedure": "(b) In vivo Test to Measure Inhibition of Oxido-squalene Cyclase\nThe ability of a compound to inhibit oxido-squalene cyclase and/or inhibit cholesterol biosynthesis may be assessed by a routine laboratory procedure carried out in the rat. The test involves administration of the compound to rats on a reversed lighting regimen. Female rats (35-55 g) are housed in reverse lighting conditions (red light from 0200 h-[…]) for a period of about 2 weeks prior to test. Animals are allowed free access to chow and drinking water throughout this period. At test, animals should weigh 100-140 g. The rats are dosed orally with the compound (typically 10-50 mg/kg) formulated in a polyethylene glycol/hydroxypropylmethyl cellulose mix. After 1 hour the rats are given triturated sodium mevalonate (15 μCi.kg^−1) intraperitoneally. Two hours after administration of the compound the rats are terminated and a piece of liver removed and weighed. The tissue is saponified at 80° C. for 2 hours in an ethanolic/potassium hydroxide solution (80% w/v aqueous KOH diluted 1:10 with ethanol). Water (2 ml) is added and the mixture extracted with iso-hexane (2×5 ml). The organic extracts are combined, evaporated to dryness under a stream of nitrogen and the residue is dissolved in a mixture of acetonitrile/iso-propanol (300 μl). […] The radio-label content of each fraction is assessed using a radio chemical flow detector. […]"}},
  "data": [
    {"smiles": "O=C(C1CCN(c2ccncc2F)CC1)N1CCN(S(=O)(=O)c2ccc(Br)cc2)CC1", "values": [
      {"measurement": "melting point", "value": 192, "unit": "°C"}
    ]},
    {"smiles": "O=C(C1CCN(c2ccncc2Cl)CC1)N1CCN(S(=O)(=O)c2ccc(Br)cc2)CC1", "note": "[Example 1]", "values": [
      {"measurement": "inhibition of rat microsomal oxido-squalene cyclase", "setting": "[1]", "value": "about 79%"},
      {"measurement": "inhibition of rat cholesterol biosynthesis", "setting": "cholesterol biosynthesis", "value": "about 79%"}
    ]}
  ]
}
